{
  "source": "patent US20090176772A1",
  "about": "“METHOD OF REVERSING LEFT VENTRICULAR REMODELING” (priority 2004, published 2009)",
  "key": {"[1]": {"test_system": "dogs with chronic heart failure produced by multiple sequential intracoronary microembolizations", "test": "Histomorphometric evaluations of LV tissue of dogs with chronic heart failure", "format": "in vivo, dog", "from_the_text": "(§1) The following example examines the effects of ranolazine alone and in combination with an angiotensin converting enzyme (ACE) inhibitor and in combination with a beta-blocker on the progression of left ventricular (LV) dysfunction and LV chamber remodeling in dogs with chronic heart failure produced by multiple sequential intracoronary microembolizations.\n(§2) Chronic LV dysfunction and failure in dogs was produced by multiple sequential intracoronary embolizations with polystyrene Latex microspheres (77-109 μm in diameter) as previously described by Sabbah et al. (1991) Am. J. Physiol. 260:H1379-H1384. Coronary microembolizations were performed during cardiac catheterization under general anesthesia and sterile conditions. Anesthesia was induced using a combination of intravenous injections of hydromorphone (0.22 mg/kg), diazepam (0.2-0.6 mg/kg) and sodium pentobarbital 50-100 mg to effect. Plane of anesthesia was maintained throughout the study using 1% to 2% isoflurane. Left and right heart catheterization was performed via a femoral arteriotomy and venotomy. After each catheterization, the vessels were repaired using 6-0 silk and the skin closed with 4-0 suture. Microembolizations were discontinued when LV ejection fraction, determined angiographically, was between 30% and 40%. A period of 2 weeks was allowed after the last embolization to ensure that infarctions produced by the last microembolizations have completely healed and heart failure was established. The study protocol was then performed.\n(§3) Healthy, conditioned, purpose-bred mongrel dogs weighing between 19 and 25 kg.\n(§4) A randomized, blinded, placebo controlled study design was used. A total of 28 dogs underwent multiple sequential intracoronary microembolizations as described above to produce chronic heart failure. Two weeks after the last embolization, dogs were randomized into 4 study groups (treatment arms). Dogs were randomized to 3 months oral therapy with ranolazine alone (375 mg, bid, n=7), ranolazine (375 mg bid) in combination with metoprolol tartrate (25 mg bid, n=7), ranolazine (375 mg bid) in combination with enalapril (10 mg bid, n=7), or placebo (ranolazine vehicle bid, n=7). Hemodynamic, angiographic, echocardiographic, Doppler and neurohumoral measurements were made prior to randomization (2 weeks after the last embolization) and after completion of therapy (3 months after initiating therapy). After completing the final hemodynamic and angiographic study, dogs were euthanized and the hearts removed and tissue prepared and saved for future histological and biochemical evaluations. The study primary and secondary end-points were as follows:\nOn the day of sacrifice, after completion of all hemodynamic and angiographic studies, the dog's chest was opened through a left thoracotomy, the pericardium was opened and the heart rapidly removed and placed in ice-cold, Tris buffer (pH 7.4). Three 2 mm thick transverse slices were obtained from the LV; one slice from the basal third, one from the middle third and one from the apical third and placed in 10% formalin. Transmural blocks were also obtained and rapidly frozen in isopentane cooled to −160° C. by liquid nitrogen and stored at −70° C. until needed. LV tissue samples were also obtained and stored in gluteraldehyde for future scanning and transmission electron microscopic studies.\nFrom each heart, 3 transverse slices one from the basal third, middle third and apical third of the LV, each […], were obtained. For comparison, tissue samples from 7 normal dogs were obtained and prepared in an identical manner. From each transverse slice, transmural tissue blocks were obtained and embedded in paraffin blocks. From each block, 6 μm thick sections were prepared and stained with Gomori trichrome to identify fibrous tissue. […]"}, "[2]": {"test_system": "dogs with chronic heart failure produced by multiple sequential intracoronary microembolizations", "test": "Ventriculographic measurements (LV volumes, ejection fraction) in dogs with chronic heart failure", "format": "in vivo, dog", "from_the_text": "as §1, §2, §3, §4\nLeft ventriculograms were performed during cardiac catheterization after completion of the hemodynamic measurements. Ventriculograms were performed with the dog placed on its right side and were recorded on 35 mm cine at 30 frames per second during a power injection of 20 ml of contrast material (RENO-M-60, Squibb Diagnostics). Correction for image magnification was made using a radiopaque grid placed at the level of the LV. LV end-systolic and end-diastolic volumes were calculated from angiographic silhouettes using the area length method (4). Premature beats and postextrasystolic beats were excluded from any analysis. LV ejection fraction was calculated as the ratio of the difference of end-diastolic and end-systolic volumes to end-diastolic volume times 100. Stroke volume was calculated as the difference between LV end-diastolic and end-systolic volumes. Cardiac output was calculated as the stroke volume times heart rate and cardiac index as the cardiac output divided by body surface area.\nTo ensure that all study measures were similar at baseline, comparisons were made between all 4 study groups before any embolizations and at the time of randomization before initiation of therapy. For these comparisons, a one way analysis of variance (ANOVA) was used with a set at 0.05. […]"}, "[3]": {"settings": "POST: after 3 months of oral therapy bid, mean±SEM"}, "[4]": {"settings": "PRE: at time of randomization, before therapy, mean±SEM"}, "[5]": {"settings": "at the end of 3 months of treatment"}, "[6]": {"settings": "change from pre-treatment to post-treatment (3 months), mean±SEM"}},
  "data": [
    {"smiles": "COc1ccccc1OCC(O)CN1CCN(CC(=O)Nc2c(C)cccc2C)CC1", "note": "(racemic) [RAN Alone, (±)-N-(2,6-dimethylphenyl)-4-[2-hydroxy-3-(2-methoxyphenoxy)-propyl]-1-piperazineacetamide]", "values": [
      {"measurement": "VFRF = volume fraction of replacement fibrosis", "setting": "[1]; LV tissue after 3 months of therapy, mean±SEM, normal dogs 0 ± 0, placebo 14.6 ± 1.2", "value": "10.5 ± 2.1", "unit": "%"},
      {"measurement": "VFIF = volume fraction of interstitial fibrosis", "setting": "[1]; LV tissue after 3 months of therapy, mean±SEM, normal dogs 3.7 ± 0.1, placebo 13.0 ± 0.7", "value": "11.0 ± 0.4", "unit": "%"},
      {"measurement": "ODD = oxygen diffusion distance", "setting": "[1]; LV tissue after 3 months of therapy, mean±SEM, normal dogs 8.9 ± 0.2, placebo 11.5 ± 0.3", "value": "10.9 ± 0.2", "unit": "μm"},
      {"measurement": "MCSA = myocyte cross-sectional area", "setting": "[1]; LV tissue after 3 months of therapy, mean±SEM, normal dogs 409 ± 10, placebo 772 ± 21", "value": "685 ± 23", "unit": "μm2"},
      {"measurement": "CD = capillary density", "setting": "[1]; LV tissue after 3 months of therapy, mean±SEM, normal dogs 2607 ± 80, placebo 1706 ± 28", "value": "1832 ± 43", "unit": "capillaries/mm2"},
      {"measurement": "Histomorphometric measures (myocyte cross-sectional area, replacement and interstitial fibrosis, oxygen diffusion distance, capillary density) compared to placebo", "setting": "[1]; after 3 months of therapy", "value": "significantly improved"},
      {"measurement": "CI = cardiac index", "setting": "[2]; [3]", "value": "2.3 ± 0.2", "unit": "L/min/m^2"},
      {"measurement": "CO = cardiac output", "setting": "[2]; [3]", "value": "1.91 ± .18 L/min"},
      {"measurement": "EDV = LV end-diastolic volume", "setting": "[2]; [3]", "value": "65 ± 2", "unit": "mL"},
      {"measurement": "EF = LV ejection fraction", "setting": "[2]; [3]", "value": "37 ± 2", "unit": "%"},
      {"measurement": "ESV = LV end-systolic volume", "setting": "[2]; [3]", "value": "41 ± 2", "unit": "mL"},
      {"measurement": "SV = stroke volume", "setting": "[2]; [3]", "value": "24 ± 1", "unit": "mL"},
      {"measurement": "CI = cardiac index", "setting": "[2]; [4]", "value": "2.0 ± 0.2", "unit": "L/min/m^2"},
      {"measurement": "CO = cardiac output", "setting": "[2]; [4]", "value": "1.67 ± .11 L/min"},
      {"measurement": "EDV = LV end-diastolic volume", "setting": "[2]; [4]", "value": "63 ± 3", "unit": "mL"},
      {"measurement": "EF = LV ejection fraction", "setting": "[2]; [4]", "value": "35 ± 1", "unit": "%"},
      {"measurement": "ESV = LV end-systolic volume", "setting": "[2]; [4]", "value": "41 ± 2", "unit": "mL"},
      {"measurement": "SV = stroke volume", "setting": "[2]; [4]", "value": "22 ± 1", "unit": "mL"},
      {"measurement": "LV ejection fraction, intra-group comparison pre- vs post-treatment", "setting": "[2]; [5]", "value": "increased significantly"},
      {"measurement": "LV end-diastolic volume, intra-group comparison pre- vs post-treatment", "setting": "[2]; [5]", "value": "remained unchanged"},
      {"measurement": "LV end-systolic volume, intra-group comparison pre- vs post-treatment", "setting": "[2]; [5]", "value": "remained unchanged"},
      {"measurement": "Δ CI (cardiac index)", "setting": "[2]; [6]", "value": "0.3 ± 0.1", "unit": "L/min/m^2"},
      {"measurement": "Δ CO (cardiac output)", "setting": "[2]; [6]", "value": "0.24 ± .10 L/min"},
      {"measurement": "Δ EDV (LV end-diastolic volume)", "setting": "[2]; [6]", "value": "2 ± 1", "unit": "mL"},
      {"measurement": "Δ EF (LV ejection fraction)", "setting": "[2]; [6]", "value": "2 ± 1", "unit": "%"},
      {"measurement": "Δ ESV (LV end-systolic volume)", "setting": "[2]; [6]", "value": "0 ± 1", "unit": "mL"},
      {"measurement": "Δ SV (stroke volume)", "setting": "[2]; [6]", "value": "2 ± 1", "unit": "mL"},
      {"measurement": "Ability to reduce LV end-diastolic volume (FIG. 1)", "setting": "[2]; data of Example 1", "value": "neither ranolazine, enalapril, nor metoprolol were independently able to reduce LV end-diastolic volume"},
      {"measurement": "Ability to reduce LV end-systolic volume (FIG. 2)", "setting": "[2]; data of Example 1", "value": "neither ranolazine, enalapril, nor metoprolol appear to independently reduce LV end-systolic volume"}
    ]}
  ]
}
